The results in this text go back to PubChem BioAssay AID328 (DTP/NCI, 2004).

For this test, the system named is BDF1 mice, P388 leukemia ip, median survival T/C. Briefly: NCI In Vivo Anticancer Drug Screen. Data for tumor model P388 Leukemia (intraperitoneal) in B6D2F1 (BDF1) mice. The note with it: endpoint: median survival time, higher = longer survival. In outline: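 Compound-treated tumour-bearing mice were compared with vehicle-treated controls. Survival was recorded, and the value is the treated-group measurement divided by the control-group measurement (T/C).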

Setting [1] is: dose: 50.0 mg/kg/injection, schedule: Q01DX005 (ip), vehicle: saline with Tween-80.
Setting [2] is: dose: 50.0 mg/kg/injection, schedule: Q01DX009 (ip), vehicle: saline with Tween-80.
[3] abbreviates: dose: 100.0 mg/kg/injection, schedule: Q01DX009 (ip), vehicle: saline with Tween-80.
Where [4] appears, read: dose: 200.0 mg/kg/injection, schedule: Q01DX009 (ip), vehicle: saline with Tween-80.
Setting [5] is: dose: 100.0 mg/kg/injection, schedule: Q04DX003 (ip), vehicle: saline.
Where [6] appears, read: dose: 200.0 mg/kg/injection, schedule: Q04DX003 (ip), vehicle: saline.
The mark [7] stands for this setting: dose: 400.0 mg/kg/injection, schedule: Q01DX009 (ip), vehicle: saline with Tween-80.
Setting [8] is: dose: 400.0 mg/kg/injection, schedule: Q04DX003 (ip), vehicle: saline.
Setting [9] is: dose: 50.0 mg/kg/injection, schedule: Q04DX003 (ip), vehicle: saline.
Setting [10] is: dose: 6.25 mg/kg/injection, schedule: Q01DX009 (ip), vehicle: saline with Tween-80.
The mark [11] stands for this setting: dose: 12.5 mg/kg/injection, schedule: Q01DX009 (ip), vehicle: saline with Tween-80.
Setting [12] is: dose: 25.0 mg/kg/injection, schedule: Q01DX009 (ip), vehicle: saline with Tween-80.
The mark [13] stands for this setting: dose: 100.0 mg/kg/injection, schedule: Q04DX003 (ip), vehicle: saline with Tween-80.
Where [14] appears, read: dose: 200.0 mg/kg/injection, schedule: Q04DX003 (ip), vehicle: saline with Tween-80.
Setting [15] is: dose: 400.0 mg/kg/injection, schedule: Q04DX003 (ip), vehicle: saline with Tween-80.

Each structure is given as a SMILES string. Several values for one entry are separate records, joined by “and”; a condition that tells them apart may be missing. Equal values may be shown once. Inconclusive results and toxic doses are left out.

`O=C1CN(Cc2ccc(Cl)cc2)CC(=O)N2CCCN12`: the T/C under setting [1] was 92 % of control.

On to `CCCC(=O)OCc1ccccn1`, for which the T/C was 107 % of control under setting [2], 102 % of control under setting [3] and 86 % of control under setting [4].

`Nc1nc2c(c(=O)[nH]1)N(C=O)C(CNc1ccc(C(=O)N[C@@H](CCC(=O)O)C(=O)O)cc1)CN2` (stereo not given in full): the T/C runs as follows: under setting [3], 95 % of control; under setting [5], 104 % of control; under setting [4], 95 % of control; under setting [6], 104 % of control; under setting [7], 95 % of control; under setting [8], 100 % of control.

With `CN(CCC#N)C1=CCCC1`, the T/C runs as follows: under setting [9], 100 % of control; under setting [5], 100 % of control; under setting [6], 100 % of control.

For `O=c1c2ccccc2nc(-c2ccccc2Cl)n1-c1nnc(C(F)(F)F)s1`, the T/C reads like this: (dose: 3.12 mg/kg/injection, schedule: Q01DX009 (ip), vehicle: saline with Tween-80) 87 % of control; under setting [10], 89 % of control; under setting [11], 89 % of control.

Take `O=[N+]([O-])c1ccc2c(c1)c(-c1cc(Cl)cc(Cl)c1)nc1ccccc12`: the T/C reads like this: under setting [12], 108 % of control; under setting [2], 97 % of control; under setting [3], 101 % of control; under setting [13], 99 % of control; under setting [4], 90 % of control; under setting [14], 88 % of control. The T/C reads like this: under setting [7], 99 % of control; under setting [15], 107 % of control.

As to `O=C(O)/C=C\C(=O)Nc1ccccc1`, the T/C is 105 % of control (dose: 6.25 mg/kg/injection, schedule: Q01DX009 (ip), vehicle: Klucel (hydroxypropylcellulose) (HPC)); 94 % of control (dose: 12.5 mg/kg/injection, schedule: Q01DX009 (ip), vehicle: Klucel (hydroxypropylcellulose) (HPC)); 94 % of control (dose: 25.0 mg/kg/injection, schedule: Q01DX009 (ip), vehicle: Klucel (hydroxypropylcellulose) (HPC)); 115 % of control (dose: 50.0 mg/kg/injection, schedule: Q01DX009 (ip), vehicle: Klucel (hydroxypropylcellulose) (HPC)); 86 % of control (dose: 200.0 mg/kg/injection, schedule: Q01DX009 (ip), vehicle: Klucel (hydroxypropylcellulose) (HPC)); 95 % of control (dose: 400.0 mg/kg/injection, schedule: Q01DX009 (ip), vehicle: Klucel (hydroxypropylcellulose) (HPC)).

As for `OCC1CC[N-]CC1.OCC1CC[N-]CC1.[Cl][Pt+2]([Cl])([Cl])[Cl]`, the T/C (dose: 25.0 mg/kg/injection, schedule: Q04DX003 (ip), vehicle: saline) is 104 % of control; the T/C under setting [9] is 101 % of control; the T/C under setting [5] is 118 % of control.

For the compound `CCC1COC(CC)N1` (stereo not given), the T/C runs as follows: under setting [1], 103 % of control; (dose: 100.0 mg/kg/injection, schedule: Q01DX005 (ip), vehicle: saline with Tween-80) 110 % of control; (dose: 200.0 mg/kg/injection, schedule: Q01DX005 (ip), vehicle: saline with Tween-80) 120 % of control.

In the case of `CCN(CC)CCNc1ccc(CO)c2sc3ccc(O)cc3c(=O)c12`, the T/C reads like this: (dose: 9.88 mg/kg/injection, schedule: Q04DX002 (ip), vehicle: saline with Tween-80) 163 % of control; (dose: 18.75 mg/kg/injection, schedule: Q04DX002 (ip), vehicle: saline with Tween-80) 207 % of control; (dose: 37.5 mg/kg/injection, schedule: Q04DX002 (ip), vehicle: saline with Tween-80) 179 % of control; (dose: 75.0 mg/kg/injection, schedule: Q04DX002 (ip), vehicle: saline with Tween-80) 207 % of control.

As to `c1csc(NC(Nc2nccs2)C2CCCCC2)n1`, the T/C by setting is: under setting [2], 101 % of control; under setting [3], 96 % of control; under setting [4], 96 % of control.

Consider `CC(C)CC(NC(=O)CF)C(=O)O` (stereo not given), for which the T/C (dose: 2.5 mg/kg/injection, schedule: Q01DX009 (ip), vehicle: saline) was 111 % of control.

As for `O=c1c(Br)cccc(CN2CCOCC2)c1O`, the T/C runs as follows: (dose: 12.5 mg/kg/injection, schedule: Q04DX002 (ip), vehicle: saline with Tween-80) 101 % of control; (dose: 25.0 mg/kg/injection, schedule: Q04DX002 (ip), vehicle: saline with Tween-80) 96 % of control; (dose: 50.0 mg/kg/injection, schedule: Q04DX002 (ip), vehicle: saline with Tween-80) 101 % of control and 106 % of control.

`CC1CC/C(=N\N(C)C)c2ccccc21` (stereo not given): the T/C reads like this: (dose: 67.0 mg/kg/injection, schedule: Q04DX003 (ip), vehicle: saline with Tween-80) 118 % of control; under setting [13], 122 % of control; under setting [15], 120 % of control.

With `O=C1OP2(c3ccccc3)(OC(=O)c3ccccc32)c2ccccc21`, the T/C by setting is: under setting [2], 91 % of control; under setting [3], 96 % of control.

In the case of `CC(C)Cc1c(N)nc(=S)[nH]c1C(=O)O`, the T/C (dose: 50.0 mg/kg/injection, schedule: Q04DX003 (ip), vehicle: Klucel (hydroxypropylcellulose) (HPC)) was 89 % of control; the T/C (dose: 100.0 mg/kg/injection, schedule: Q04DX003 (ip), vehicle: Klucel (hydroxypropylcellulose) (HPC)) is 107 % of control; the T/C (dose: 200.0 mg/kg/injection, schedule: Q04DX003 (ip), vehicle: Klucel (hydroxypropylcellulose) (HPC)) is 96 % of control.

As for `CC(=O)Nc1ccc(/C=N/Nc2ccc([N+](=O)[O-])cn2)cc1`, the T/C is 95 % of control (dose: 62.5 mg/kg/injection, schedule: Q01DX010 (ip), vehicle: saline); 105 % of control (dose: 100.0 mg/kg/injection, schedule: Q04DX003 (ip), vehicle: saline sonified); 90 % of control (dose: 125.0 mg/kg/injection, schedule: Q01DX010 (ip), vehicle: saline); 105 % of control (dose: 200.0 mg/kg/injection, schedule: Q04DX003 (ip), vehicle: saline sonified); 100 % of control (dose: 250.0 mg/kg/injection, schedule: Q01DX010 (ip), vehicle: saline); 100 % of control (dose: 400.0 mg/kg/injection, schedule: Q04DX003 (ip), vehicle: saline sonified).

As to `Nc1ccc(/C=C2\C=Cc3ccccc32)cc1`, the T/C (dose: 17.75 mg/kg/injection, schedule: Q04DX003 (ip), vehicle: saline sonified) was 100 % of control; the T/C (dose: 18.75 mg/kg/injection, schedule: Q01DX009 (ip), vehicle: saline with Tween-80) was 90 % of control; the T/C (dose: 37.5 mg/kg/injection, schedule: Q01DX009 (ip), vehicle: saline with Tween-80) is 100 % of control; the T/C (dose: 37.5 mg/kg/injection, schedule: Q04DX003 (ip), vehicle: saline sonified) was 100 % of control; the T/C (dose: 75.0 mg/kg/injection, schedule: Q04DX003 (ip), vehicle: saline sonified) is 95 % of control.

Turning to `CC(C)C(C)/C=C\C(C)C1CCC2C3=CCC4CC(O)CCC4(C)C3CCC21C` (stereo not given), the T/C is 100 % of control under setting [10], 101 % of control under setting [11] and 94 % of control under setting [12].

Take `COc1ccccc1NC(N)=O`: the T/C was 105 % of control under setting [13], 105 % of control under setting [14] and 100 % of control under setting [15].

Turning to `NC(Cc1cccc(NP(=S)(N2CC2)N2CC2)c1)C(=O)O` (stereo not given), the T/C by setting is: (dose: 22.0 mg/kg/injection, schedule: Q04DX003 (ip), vehicle: saline) 120 % of control; (dose: 35.0 mg/kg/injection, schedule: Q04DX003 (ip), vehicle: saline) 112 % of control; under setting [9], 150 % of control; (dose: 115.0 mg/kg/injection, schedule: Q04DX003 (ip), vehicle: saline) 172 % of control; (dose: 175.0 mg/kg/injection, schedule: Q04DX003 (ip), vehicle: saline) 268 % of control; (dose: 264.0 mg/kg/injection, schedule: Q04DX003 (ip), vehicle: saline) 272 % of control. The T/C under setting [8] was 272 % of control and the T/C (dose: 600.0 mg/kg/injection, schedule: Q04DX003 (ip), vehicle: saline) is 86 % of control.
